Patent US6906205B2, “Spiro and dispiro 1,2,4-trioxolane antimalarials” (Medicines for Malaria Venture MMV, priority 2002, dated 2005)
Values after ≈ are worked out from the molar mass of the structure shown.

Legend:
[1] = tested on: P. falciparum K1 strain (Thailand resistant to chloroquine); experiment: semiautomated microdilution assay, [3H]-hypoxanthine incorporation, K1 strain; assay type: cell-based, Plasmodium falciparum; conditions: K1 strain, 72 h incubation
Procedure: (§1) Various OZ compounds were tested by the semiautomated microdilution assay against intraerythrocytic forms of Plasmodium falciparum derived from asynchronous stock cultures.
(§2) Fifty percent inhibitory concentration (IC50) were estimated by Logit regression analysis.

[2] = tested on: P. falciparum NF54 strain (sensitive to standard antimalarials); experiment: semiautomated microdilution assay, [3H]-hypoxanthine incorporation, NF54 strain; assay type: cell-based, Plasmodium falciparum; conditions: NF54 strain, 72 h incubation
Procedure: as §1, §2

[3] = tested on: ANKA strain of P. berghei; experiment: single dose STI in vivo screen in infected mice; design: species or system Plasmodium berghei; conditions: for Activity (%) po / Activity (%) sc / Activity (%) SSVpo: percent reduction in parasitemia day 3 post-infection, mice; for Activity (%) po / Survival (days) po: single 10 mg/kg po in 3% ethanol and 7% Tween 80; for Activity (%) sc / Survival (days) sc: single 10 mg/kg sc in 3% ethanol and 7% Tween 80; for Activity (%) SSVpo: single po dose in standard suspending vehicle (SSV); for Survival (days) po / Survival (days) sc / Survival (days) SSVpo: untreated control 5.6 ± 0.3; for Survival (days) SSVpo: single po dose in SSV
Summary of the method: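 Groups of 3-5 Moro SPF or NMRI mice infected with the ANKA strain of P. berghei received a single dose of trioxolane on day one post-infection. The compound was given in 3% ethanol and 7% Tween 80 or in SSV (0.5% w/v CMC, 0.5% v/v benzyl alcohol, 0.4% v/v Tween 80, 0.9% w/v sodium chloride in water). Antimalarial activity was scored as percent reduction in parasitemia on day three and as survival time versus untreated controls. Survival to day 30 counted as cure.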

Row | Compound | IC50 (ng/ml) K1 [1] | IC50 (ng/ml) NF54 [2] | Activity (%) po [3] | Activity (%) sc [3] | Activity (%) SSVpo [3] | Survival (days) po [3] | Survival (days) sc [3] | Survival (days) SSVpo [3]
1 | CCCCS(=O)(=O)N1CCC2(CC1)OOC1(O2)C2CC3CC(C2)CC1C3 (centres unmarked) [OZ92] | 1.6 ng/mL (≈ 4.15 nM) | 0.40 ng/mL (≈ 1.04 nM) | 81% | 99.98% | 35% | 6.7 days | 10.0 days | 6.3 days
2 | O=C(CN1C(=O)c2ccccc2C1=O)N1CCC2(CC1)OOC1(O2)C2CC3CC(C2)CC1C3 (centres unmarked) [OZ93] | 3.3 ng/mL (≈ 7.29 nM) | 0.92 ng/mL (≈ 2.03 nM) | 57% | 100% | 3% | 6.7 days | 13.3 days | 6.0 days
3 | c1ccc2c(c1)-c1ccccc1C21OOC2(O1)C1CC3CC(C1)CC2C3 (centres unmarked) [OZ94] | 57 ng/mL (≈ 165 nM) | 28 ng/mL (≈ 80.8 nM) | 21% | 11% | 0% | 6.0 days | 5.3 days | 5.7 days
4 | O=[N+]([O-])c1ccc(C2(c3ccccc3)OOC3(O2)C2CC4CC(C2)CC3C4)cc1 (centres unmarked) [OZ95] | 2.8 ng/mL (≈ 7.12 nM) | 1.3 ng/mL (≈ 3.3 nM) | 31% | 49% | 0% | 6.0/6.0/6.0 days | 6.0/6.0/6.0 days | 6.0/6.0/6.0 days
5 | O=[N+]([O-])c1cc(C2(c3ccc(Cl)c([N+](=O)[O-])c3)OOC3(O2)C2CC4CC(C2)CC3C4)ccc1Cl (centres unmarked) [OZ96] | 8.4 ng/mL (≈ 16.6 nM) | > 10 ng/mL | 12% | 19% | 14% | 5.7 days | 5.3 days | 5.7 days
6 | O=C1c2ccccc2C(=O)N1CC1(c2ccccc2)CCC2(CC1)OOC1(O2)C2CC3CC(C2)CC1C3 (centres unmarked) [OZ97] | 2.2 ng/mL (≈ 4.4 nM) | 1.8 ng/mL (≈ 3.6 nM) | 59% | 66% | 2% | 6.7 days | 7.0 days | 5.3 days
7 | COC(=O)C1(c2ccccc2)CCC2(CC1)OOC1(O2)C2CC3CC(C2)CC1C3 (centres unmarked) [OZ98] | 2.3 ng/mL (≈ 5.77 nM) | 0.9 ng/mL (≈ 2.26 nM) | 72% | 77% | 11% | 6.3 days | 7.3 days | 5.3 days
8 | O=C(O)C1(c2ccccc2)CCC2(CC1)OOC1(O2)C2CC3CC(C2)CC1C3 (centres unmarked) [OZ99] | 77 ng/mL (≈ 200 nM) | 27 ng/mL (≈ 70.2 nM) | 30% | 36% | 40% | 6.3 days | 6.3 days | 5.7 days
9 | CC(=O)Nc1ccc(S(=O)(=O)N2CCC3(CC2)OOC2(O3)C3CC4CC(C3)CC2C4)cc1 (centres unmarked) [OZ104] | 1.4 ng/mL (≈ 3.03 nM) | 0.50 ng/mL (≈ 1.08 nM) | 56% | 99.98% | 0% | 6.3 days | 12.0 days | 5.7 days
10 | COC(=O)c1ccc(C2(c3ccc(C(=O)OC)c(C(=O)OC)c3)OOC3(O2)C2CC4CC(C2)CC3C4)cc1C(=O)OC (centres unmarked) [OZ106] | 2.2 ng/mL (≈ 3.79 nM) | 1.7 ng/mL (≈ 2.93 nM) | 0/0/0% | 0/0/0% | 0/0/0% | 5.3 days | 5.3 days | 5.0 days
11 | O=C(O)c1nccnc1C(=O)N1CCC2(CC1)OOC1(O2)C2CC3CC(C2)CC1C3 (centres unmarked) [OZ109] | 21 ng/mL (≈ 50.5 nM) | 24 ng/mL (≈ 57.8 nM) | 2% | 24% | 0% | 5.7 days | 6.3 days | 5.7 days
12 | CCOC(=O)N1C2CCC1CC1(C2)OOC2(O1)C1CC3CC(C1)CC2C3 (centres unmarked) [OZ110] | 5.3 ng/mL (≈ 14.6 nM) | 2.1 ng/mL (≈ 5.78 nM) | 50% | 97.97% | 0% | 6.7 days | 7.7 days | 5.3 days
13 | O=C(O)COCC(=O)N1CCC2(CC1)OOC1(O2)C2CC3CC(C2)CC1C3 (centres unmarked) [OZ112] | >10/>10 ng/ml | >10/>10 ng/ml | 6% | 36% | 0% | 5.7 days | 6.3 days | 5.7 days
